Experimental data: patent publication US11492327B2, “Aminooxylipids for the construction of self-assembling liposomal systems enabling their subsequent modification by biologically functional molecules” (VYSOKA SKOLA CHEMICKO-TECHNOLOGICKA V PRAZE, priority 2016, dated 2022)

Legend:
[1] = HA binding onto liposomes presenting the aminooxy group vs. the amino group (gel chromatography, fluorimetry); conditions: incubated in 10 mM citric acid; lipid incorporated in liposomes
Procedure: Methods: Liposomes presenting the aminooxy group were prepared by the procedure described in Example 15, containing 1% aminooxylipidid of general formula I (according to Example 14) at a starting concentration of 10 mg/ml PBS. The amino group-presenting liposomes were prepared by the same technique with the amino group-containing lipid DOPE. These liposomes at a starting concentration of 10 mg/ml PBS were mixed with fluorescently labelled HA (Sigma-Aldrich) at a concentration of 1 mg/ml PBS in a ratio of 1 mg total lipid to 0.1 mg HA. Incubation takes place for at least 30 minutes at room temperature (see Example 19). Both samples were incubated in 10 mM citric acid. Unbound HA was removed on a Superose 6 column (200 μl spraying buffer, flow rate of the first milliliter was 0.1 ml/min, then 0.3 ml/min, collection of 1 ml fractions). Fluorescence was measured using a Perkin Elmer fluorimeter at appropriate wavelengths (excitation for FITC-HA was 490 nm, emission 505 nm).

[2] = system: H1299 cells of lung carcinoma cell line; test: Cytotoxicity of liposomes: apoptotic cells detected with Annexin V by flow cytometry; type: cell-based; conditions: aminooxylipid incorporated into liposomal bilayer
Procedure: (§1) Methods: The cytotoxicity of liposomes prepared as described in Example 15 is determined by comparing the cytotoxicity of EPC liposomes and EPC liposomes with an incorporated aminooxylipid of general formula I (according to Example 12, 13 or 14) in in vitro experiments with T-lymphocytes and on H1299 cells of lung carcinoma cell line.
(§2) Measurements were performed on a flow cytometer Fortessa (Becton Dickinson). Apoptotic cells were detected and quantified using the fluorescent dye Annexin V (Invitrogen).
(§3) In all experiments, 500 μl media per well were used and lipid content was 100 μg per 1 ml of the medium. Unmodified liposomes and liposomes modified post-liposomally with hyaluronic acid were incubated. In Experiment 1, H1299 cells of lung carcinoma were incubated for 30 minutes at 4° C. In Experiment 2, T-lymphocytes were used and incubated at room temperature in a rotator. In Experiments 3 and 4, H1299 cells of lung carcinoma cell line were used and incubated for 2 hours in a CO2 incubator (37° C., 5% CO2). In Experiment 5, H1299 cells of lung carcinoma were used. These cells were incubated for 30 minutes at 4° C. in a refrigerator.

T-lymphocytes = test: as above; type: cell-based; conditions: aminooxylipid incorporated into liposomal bilayer
Procedure: as §1, §2, §3

[3] = Size, PDI and zeta-potential of liposomes by DLS (Nanosizer ZS); type: physicochemical; conditions: for Effect of incorporation into liposomes on the final distribution of liposomes: 99% EPC, 1% aminooxylipid; for Zeta potential: liposomes containing 1% aminooxylipid in PBS solution with neutral pH
Procedure: Methods: Liposomes with incorporated aminooxylipids were prepared by phospholipid film hydration. All lipids were dissolved in chloroform at a concentration of 10 mg of lipid/1 ml chloroform at a molar ratio of 99% EPC to 1% aminooxylipids of general formula I (according to Examples 12, 13 and 14). The chloroform solution was evaporated in a globular flask on a rotary evaporator; pressure: 100 hPa, water bath temperature: 37° C., 90 revolutions/minute). The resulting lipid film was hydrated with PBS (pH 7.2, 0.14M NaCl, 20 mM Na-phosphate) to a final concentration of 10 mg/ml. The liposomes were then extruded through Nucleopore polycarbonate filters with 400 and 100 nm pore size. The size and zeta-potential were measured using a Nanosizer ZS (Malvern, UK) in a DTS cell, Attenuator value 4, 25° C. […] Example with a lipid of general formula I (according to Example 12): EPC liposomes: size 82 nm, PDI 0.11; EPC+ aminooxylipid 1%: size 81 nm, PDI 0.1.
DLS measurements were carried out under the same conditions as in Example 15.
Methods: The liposomes prepared as described in Example 15, containing 1% aminooxylipidid of general formula I (according to Example 14) at a starting concentration of 10 mg/ml PBS were mixed with a mannan solution in PBS in a ratio of 1 mg total lipid to 0.1 mg mannan. The reaction was carried out at room temperature. Low molecular weight components and unbound mannan were removed by gel chromatography on a Superose 6 column. The mannan binding onto the liposomal surface was confirmed by: a) scanning and transmission electron microscopy; b) the change in liposome size was determined by the DLS technique (Zetasizer ZS, Malvern UK). The polysaccharide mannan was isolated from the yeast Candida albicans. The size of the molecules of mannan and liposomes was measured by DLS. […] Dendritic cells were prepared by culture from peripheral blood of healthy donors. Their stimulating activity was compared with lipopolysaccharide activity (LPS, standard Salmonella minnesota).

CCCCCCCC/C=C\CCCCCCCC(=O)OC[C@H](COP(=O)(O)OCCN)OC(=O)CCCCCCC/C=C\CCCCCCCC [DOPE, 1,2-dioleoyl-sn-glycero-3-phosphoethanolamine, reference compound]
HA remaining bound after acidification, % of the original HA [1]: 20%

CCCCCCCCCCCCCCC(CCCCCCCCCCCCCC)C(=O)NCCNC(=O)CON.O=C(O)C(F)(F)F [Example 12, N^1-(2-tetradecylhexadecanoyl)-N^2-amoniumoxyacetyl-1,2-diaminoethane-trifluoroacetate]
Cytotoxicity of EPC liposomes with incorporated aminooxylipid vs. EPC liposomes [2]: does not result in an increase in their cytotoxicity
Cytotoxicity of EPC liposomes with incorporated aminooxylipid vs. EPC liposomes (T-lymphocytes): does not result in an increase in their cytotoxicity
Effect of incorporation into liposomes on the final distribution of liposomes ([3]; Example 15): no significant effect
PDI ([3]; Example 15, EPC liposomes without or with 1% aminooxylipid, PBS): 0.1
size ([3]; Example 15, EPC liposomes without or with 1% aminooxylipid, PBS, extruded 400 and 100 nm): 81 nm
Zeta potential [3]: around 0 mV

CCCCCCCCCCCCCCC(CCCCCCCCCCCCCC)C(=O)NCCCNC(=O)CON.O=C(O)C(F)(F)F [Example 13, N^1-(2-tetradecylhexadecanoyl)-N^3-amoniumoxyacetyl-1,3-diaminopropane-trifluoracetate]
Cytotoxicity of EPC liposomes with incorporated aminooxylipid vs. EPC liposomes [2]: does not result in an increase in their cytotoxicity
Cytotoxicity of EPC liposomes with incorporated aminooxylipid vs. EPC liposomes (T-lymphocytes): does not result in an increase in their cytotoxicity
Effect of incorporation into liposomes on the final distribution of liposomes ([3]; Example 15): no significant effect
Zeta potential [3]: around 0 mV

CCCCCCCCCCCCCCC(CCCCCCCCCCCCCC)C(=O)NCOC(CCOCC)NC(=O)CON.O=C(O)C(F)(F)F (centres unmarked) [Example 14, N^1-(2-tetradecylhexadecanoyl)-N^3-amoniumoxyacetyl-1,3-diamino-2,6-dioxaoctane-trifluoracetate]
HA remaining bound after acidification, % of the original HA [1]: did not change due to acidification
Cytotoxicity of EPC liposomes with incorporated aminooxylipid vs. EPC liposomes [2]: does not result in an increase in their cytotoxicity
Cytotoxicity of EPC liposomes with incorporated aminooxylipid vs. EPC liposomes (T-lymphocytes): does not result in an increase in their cytotoxicity
Effect of incorporation into liposomes on the final distribution of liposomes ([3]; Example 15): no significant effect
size (size distribution, particle numbers) ([3]; Example 20, FIG. 3, liposomes with 1% aminooxylipid, alone or coupled with IgY): 107 nm
Zeta potential [3]: around 0 mV
